Results on two compounds are retold here after patent US6656709B1, “Methods of increasing the production of cobalamins using cob gene expression” (priority 1990, dated 2003).

Broadly, the Km is the substrate concentration at which the rate is half of its maximum.

Assay [1] concerns crude extract of strain SC510 Rif^r. Nature of the assay: Enzymatic chelation with cobalt in crude extract of strain SC510 Rif^r. The assay is classed as biochemical, Pseudomonas denitrificans. The note with it: 7 mM ATP, 200 μM CoCl2. On the procedure:
A crude extract of strain SC510 Rif^r is obtained by sonication of wet cells (10 g) in 0.2 M Tris-HCl buffer pH 8.0 (20 ml), followed by removal of the cell debris by centrifugation for 1 h at 50,000×g. Proteins (1000 mg) of this extract are incubated for 1 h at 30° C. with carbon-14-labelled hydrogenobyrinic acid diamide (32 nmol; 50 μCi/μmol) in 0.2 M Tris-HCl buffer pH 8.0 (40 ml) containing 7 mM ATP and 200 μM CoCl2. The reaction is stopped by adding 1 M KH2PO4 (7.5 ml) and 0.3 M KCN (6 ml), followed by heating for 10 min at 80° C. […] To confirm that the product is indeed cobyrinic acid a,c-diamide, the product is purified by HPLC and then esterified in methanol containing 5% of sulphuric acid (18 h, 20° C.). […] It should be noted that, under similar incubation conditions in which the radioactive labelling is introduced, not into the hydrogenobyrinic acid a,c-diamide, but into the cobalt (using cobalt-57), cobalt-57-labelled cobyrinic acid a,c-diamide is biosynthesised and the same conclusions could be drawn.

Assay [2] deals with Pseudomonas denitrificans SUMT (Sinorhizobium sp, UniProt P21631). The settings on record: cited from earlier work.
Assay [3] concerns the target T1, Methanobacterium ivanovii SUMT (Methanobacterium ivanovii, UniProt P29564).
T1 construct: endogenous in cells; host or cells: Methanobacterium ivanovii DSM2611 (enzyme purified to homogeneity from the natural organism)
T1 sequence (P29564 2-231 limits assumed): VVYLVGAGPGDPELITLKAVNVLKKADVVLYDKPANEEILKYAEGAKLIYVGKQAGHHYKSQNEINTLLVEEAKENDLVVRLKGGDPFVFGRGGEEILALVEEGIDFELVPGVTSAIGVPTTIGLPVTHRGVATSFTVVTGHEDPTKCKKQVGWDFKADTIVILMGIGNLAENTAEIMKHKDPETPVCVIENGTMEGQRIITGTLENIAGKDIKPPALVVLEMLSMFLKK
Briefly: Catalytic properties of purified M. ivanovii SUMT. The assay is classed as biochemical. As to the method: Methanobacterium ivanovii strain DSM2611 is cultured as described (Souillard et al., 1988). Wet cells (12 g) are obtained. The latter are resuspended in 0.1 M Tris-HCl buffer pH 7.6 (80 ml) containing 5 mM DTT and 1 mM EDTA, and sonicated for 1 h 30 min at 4° C. and then centrifuged for 1 h at 50,000 g. Free tetrapyrrole compounds are then cleared from the extract by passage through a small DEAE-Sephadex A25 column set up in the same buffer. The proteins precipitating at between 55 and 75% ammonium sulphate saturation are solubilised in a 0.1 M Tris-HCl pH 7.5, 0.5 mM DTT, 1.7 M ammonium sulphate buffer and injected onto a Phenyl-Superose HR 10/10 (Pharmacia France/SA) column eluted with a decreasing gradient (1.7 M to 0 M with respect to ammonium sulphate). The active fractions are passed through a Sephadex G-25 column equilibrated with 0.1 M Tris-HCl pH 7.5, 0.5 mM DTT, 25% glycerol buffer (buffer A), then injected onto a Mono Q HR 5/5 (Pharmacia France SA) column equilibrated with buffer A and eluted with a KCl gradient of 0 to 0.3 M; this step is repeated a second time under the same conditions. Gel permeation chromatography of the active fraction of the preceding step on Bio-Sil TSK-250 (BioRad France SA) enables a protein which is homogeneous in SDS-PAGE and in RP-HPLC (C-18 pBondapak) to be obtained. The different steps of purification, with their yield, as well as their purification factor, are described in the table below.
As shown in this table, the total purification factor is more than 4,500. Some properties of the pure enzyme have been studied according to methods already described (Blanche et al., 1989). This enzyme does indeed have SUMT activity, i.e. it does indeed catalyse the SAM-dependant transfer of two methyl groups at C-2 and at C-7 of uro'gen III.
The Vmax of M. ivanovii SUMT was determined. It is 1537 U/mg of proteins. This value is greater than that found for P. denitrificans SUMT, already determined under optimal conditions for the reaction (taking account of its inhibition by uro'gen III), 489 U/mg of proteins (Blanche et al., 1989).

Sequence of Pseudomonas denitrificans SUMT (P21631 whole entry): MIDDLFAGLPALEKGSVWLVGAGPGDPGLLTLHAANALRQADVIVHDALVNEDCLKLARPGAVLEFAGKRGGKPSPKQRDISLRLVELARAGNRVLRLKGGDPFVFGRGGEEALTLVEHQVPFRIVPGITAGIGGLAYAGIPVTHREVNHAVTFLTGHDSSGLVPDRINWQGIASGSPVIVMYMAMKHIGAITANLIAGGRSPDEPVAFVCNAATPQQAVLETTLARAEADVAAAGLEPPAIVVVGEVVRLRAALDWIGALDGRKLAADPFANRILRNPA

`C/C1=C2N=C(/C=C3\N/C(=C(/C)C4=NC(C)(C5N=C1C(C)(CCC(=O)O)C5CC(=O)O)C(C)(CC(=O)O)C4CCC(=O)O)C(C)(CC(=O)O)C3CCC(=O)O)C(C)(C)C/2CCC(=O)O` (stereo not shown) [hydrogenobyrinic acid]: the “substrate for enzymatic chelation with cobalt” value in assay [1] is recorded as “not a substrate”.
For uroporphyrinogen III [uro'gen III], the “concentration above which inhibition by uro'gen III is shown” value in assay [2] is given as “above 2 μM”. The inhibition by substrate result in assay [3] (at concentrations below 20 μM) is given as “does not show inhibition by substrate”. The Michaelis constant (Km) in assay [3] (conditions of Blanche et al., 1989) stood at 52 nM.
